Laboratory results as given in ChEMBL document CHEMBL3638846, “Galactoside inhibitors of galectins” (2014).

Experiments:
[1] = molecular target: Galectin-3 (Homo sapiens, UniProt P17931); test: (§1) Fluorescence Polarization-Based Assay: Compounds 7, 15-19, and 22 were evaluated for their efficiency in inhibiting galectin-1 and galectin-3 in a known fluorescence polarization-based assay (Sörme et al., 2003a, 2004). All compounds were potent inhibitors of galectin-1 and galectin-3 with dissociation constant in the low μM or nM range. This evidences that a properly structured cyclohexane can mimic the subsite D-binding saccharide moiety, e.g. N-acetylglucosamine in the disaccharide N-acetyllactosamine.
[2] = molecular target: Galectin-1 (Homo sapiens, UniProt P09382); test: as §1
Chain of Galectin-1 (P09382 whole entry): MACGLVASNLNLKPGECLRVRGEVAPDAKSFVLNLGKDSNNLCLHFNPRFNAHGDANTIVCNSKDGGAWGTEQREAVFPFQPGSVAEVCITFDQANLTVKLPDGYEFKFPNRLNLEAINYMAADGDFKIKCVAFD

Chain of Galectin-3 (P17931 whole entry): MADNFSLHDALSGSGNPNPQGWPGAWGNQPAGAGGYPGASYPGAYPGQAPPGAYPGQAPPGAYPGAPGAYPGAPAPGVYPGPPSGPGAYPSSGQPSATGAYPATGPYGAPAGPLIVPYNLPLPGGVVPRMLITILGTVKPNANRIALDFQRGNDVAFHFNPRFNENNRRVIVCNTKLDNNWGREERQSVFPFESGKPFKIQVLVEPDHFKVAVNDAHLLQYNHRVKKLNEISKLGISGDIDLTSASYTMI

CO[C@@H]1OC(CO)[C@@H](O[C@@H]2OC(CO)[C@H](O)[C@H](O)C2O)[C@H](O)C1NC(C)=O (some centres not stated)
Kd [1]: 59 µM
Kd [2]: 65 µM
